Earlier results, collected in patent US6153738A (priority 1999, dated 2000).

System: Swiss Webster mice
Settings: mouse, in vivo

## GCX1 X2 EPWC [contryphan-R]
  symptomatology after intracranial injection into mice: stiff-tail syndrome
